Measurements from patent US11285172B2, “Method for treating inflammatory diseases” (MacKay Memorial Hospital, priority 2019, dated 2022).
Where a name gives a salt, the structure may show the parent alone.

Test system: FANCs internalization in HAECs
Assay: Endocytic pathway inhibition: FANC internalization in HAECs after endocytosis inhibitor pre-treatment (flow cytometry, confocal)
Type: cell-based, human
Conditions: for effect on FANCs internalization: complete medium, inhibitor pre-treatment 45 min (filipin 30 min); for effect on FANCs internalization / decrement of FANCs internalization compared to FANCs control: then FANCs 80 min; for decrement of FANCs internalization compared to FANCs control: 45 min inhibitor pre-treatment
Method: In certain experiments, HAECs were treated by endocytosis inhibitors to inhibit endocytic pathways. Endocytosis inhibitors are chlorpromazine hydrochloride (10 μg/ml, C8138), filipin (10 μg/ml, F9765), amiloride (10 μmol/L A7410), and genistein (50 μmol/L G6649; all obtained from Sigma-Aldrich).
Cells were seeded onto 2% gelatin-coated glass coverslips and incubated for 24 hours and applied to FANCs treatments. Cells were fixed with 1% paraformaldehyde, washed with PBS, then blocked with 5% bovine serum albumin (BSA) for 30 minutes. Then the cell culture was incubated with primary antibodies against VE-cadherin at 37° C. for 2 hours, followed by application of FITC-conjugated secondary antibody (Chemicon, Temecula, Calif., USA) for 50 minutes under room temperature. After one hour for the pre-treatment by above-mentioned endocytosis inhibitor, HAECs were incubated with FANCs for 80 minutes followed by washed with PBS and fixed with 1% paraformaldehyde. Afterwards, cells were stained with bisbenzamide (18.7 μmol/L) for 15 minutes and then washed with PBS buffer. Then, the cells were mounted by using 60% glycerol (v/v) and examined by using a confocal microscope (Leica TCS SP5, Leica, Germany) with a 40× oil objective/1.25 aperture. The images were captured under room temperature.
After 45 minutes of inhibitors pre-treatment (except 30 minutes of filipin treatment), FANCs were added and the incubation continued for additional 80 minutes. Thereafter, cells were subject to flow cytometry (FIGS. 1A-1D). […] However, in low serum or no serum medium, internalization of FANCs was blocked by chlorpromazine hydrochloride (compared to FANCs control, 60% of decrement at 1% FBS medium and 51% of decrement at no serum medium; FIGS. 1B and 1C).

`N=C(N)NC(=O)c1nc(Cl)c(N)nc1N` [amiloride] was tested. Which “effect on FANCs internalization” value (flow cytometry) did it give?
Its value is “slighter effects”.

`CCCCC[C@@H](O)[C@H]1C(=O)O[C@H](C)[C@@H](O)/C=C/C=C/C=C/C=C/C=C(\C)[C@@H](O)C[C@H](O)C[C@H](O)C[C@H](O)C[C@H](O)C[C@H](O)C[C@@H]1O` [filipin] was tested. Which “effect on FANCs internalization” value (flow cytometry) did it give?
The value was “slighter effects”.

For `O=c1c(-c2ccc(O)cc2)coc2cc(O)cc(O)c12` [genistein], which “effect on FANCs internalization” value (flow cytometry) is on record?
The value was “slighter effects”.

How did the “decrement of FANCs internalization compared to FANCs control” value (1% FBS medium, flow cytometry, HAECs) turn out when `CN(C)CCCN1c2ccccc2Sc2ccc(Cl)cc21` [chlorpromazine hydrochloride] was run?
Its value is 60%.

And the “effect on FANCs internalization” value (flow cytometry)?
Its value is “slighter effects”.

And the “punctate fluorescence signals of FANCs (confocal microscopy)” value (confocal microscopy, HAECs, FANCs 80 min after inhibitor pre-treatment)?
The value was “down-regulated”.

What about the “decrement of FANCs internalization compared to FANCs control” value (no serum medium, flow cytometry, HAECs) of the same molecule?
Its value is 51%.

What about the “FANC internalization, dose dependence” value (only in low serum and no serum supplement culture environments, flow cytometry) of the same molecule?
Its value is “attenuated FANC internalization in a dose-dependent manner”.
